Drawing on patent US12391660B2, “Heteroaromatic acetamide derivative, and preparation and use thereof” (Hangzhou Westan Pharmaceutical Technology Co., Ltd, priority 2019, dated 2025), this text covers IC50 for 30 molecules.

SMILES strings stand for the structures.

The target in this assay is human TRPA1 (Homo sapiens (Human), UniProt O75762). The assay is described as follows: FLIPR assay of inhibitory activity on human TRPA1 (calcium ion flux fluorescence). Type of assay: cell-based. The conditions noted are these: HEK293 cells stably expressing human TRPA1. On the procedure: 1. FLIPR Assay of Inhibitory Activity on Human TRPA1
Sequence of human TRPA1 (O75762 whole entry): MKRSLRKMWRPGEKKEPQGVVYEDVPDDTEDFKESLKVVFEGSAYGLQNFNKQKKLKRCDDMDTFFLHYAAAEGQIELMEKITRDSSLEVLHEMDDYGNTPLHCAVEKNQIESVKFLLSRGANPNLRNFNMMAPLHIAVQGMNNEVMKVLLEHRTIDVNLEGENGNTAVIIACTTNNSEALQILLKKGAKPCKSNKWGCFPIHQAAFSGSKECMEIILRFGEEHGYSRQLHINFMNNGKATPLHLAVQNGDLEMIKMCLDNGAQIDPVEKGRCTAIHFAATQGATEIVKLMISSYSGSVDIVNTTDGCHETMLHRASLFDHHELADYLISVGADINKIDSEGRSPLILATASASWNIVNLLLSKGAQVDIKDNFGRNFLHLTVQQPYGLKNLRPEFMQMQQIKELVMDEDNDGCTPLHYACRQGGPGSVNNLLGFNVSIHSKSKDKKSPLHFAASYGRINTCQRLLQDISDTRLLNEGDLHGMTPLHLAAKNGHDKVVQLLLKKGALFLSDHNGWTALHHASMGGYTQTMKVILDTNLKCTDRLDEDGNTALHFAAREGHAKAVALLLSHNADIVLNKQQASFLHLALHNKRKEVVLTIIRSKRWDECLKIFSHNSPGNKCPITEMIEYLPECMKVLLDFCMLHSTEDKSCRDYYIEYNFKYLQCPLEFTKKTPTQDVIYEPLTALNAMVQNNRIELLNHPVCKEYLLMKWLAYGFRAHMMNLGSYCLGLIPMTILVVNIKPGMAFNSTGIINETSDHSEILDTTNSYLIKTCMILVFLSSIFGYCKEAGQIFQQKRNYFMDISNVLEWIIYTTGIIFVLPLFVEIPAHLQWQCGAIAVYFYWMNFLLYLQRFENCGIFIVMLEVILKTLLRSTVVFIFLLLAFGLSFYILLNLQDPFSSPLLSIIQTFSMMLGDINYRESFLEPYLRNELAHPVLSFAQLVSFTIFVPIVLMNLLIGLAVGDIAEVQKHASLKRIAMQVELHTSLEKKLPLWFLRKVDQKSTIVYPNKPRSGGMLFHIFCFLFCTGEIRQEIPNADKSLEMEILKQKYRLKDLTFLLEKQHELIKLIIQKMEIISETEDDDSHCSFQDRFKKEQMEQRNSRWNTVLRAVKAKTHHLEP
A calcium ion flux fluorescence method (FLIPR assay) was adopted to measure the inhibitory activity of compounds on human TRPA1 channel. The literature reports of Lee and Chen et al. may be referred to for the method [Lee et al. Br J Pharmacol 2008, 153 (8): 1739-1749] [Chen et al. Pain 2011, 152(5):1165-72].
A HEK293 recombinant cell strain stably expressing human TRPA1 (Creative Biogene, NY) was cultured in DMEM (Thermo Fisher Scientific, Shanghai) medium (containing 10% calf serum, 5 μg/ml Blasticidin and 400 ug/ml G418). The incubator was under a condition of 37° C. and air humidity with 5% CO2.
TRPA1 cells were seeded in a 96-well analysis plate at a density of 75,000 cells per well (100 ul/well), and cultured overnight in an incubator at 37° C. and 5% CO2. On the second day, incubation was continued overnight under the same condition to induce the expression of TRPA1 after the culture medium in each well was poured out and a fresh supplement with the same culture medium containing 0.1 μg/ml Tetracycline was added. The further next day, the culture medium was pour out, a DMEM culture solution (also containing 2.5 mM Probenicid) containing 5 μM Fluo-4 AM (Molecular Probes) was added to each well, and incubation was conducted at 37° C. for 1 hour.
The compound was dissolved in 100% DMSO to prepare a 30 mM stock solution which was stored at −20° C. On the day of use, the compound stock solution was thawed at room temperature. Each compound was subjected to 1:5 serial dilution using DMSO medium at a starting concentration of 30 μM with 9 concentration points on a 96-well plate. Each compound was diluted in duplicate for testing. Ruthenium Red was used as the positive control compound and the same dilution was carried out at a starting concentration of 3 μM.
The cell analysis plate was placed in an FLIPR instrument […], and the compound in the compound plate was added to the corresponding hole on the cell analysis plate (First addition) via an automatic program, and the calcium ion fluorescence signal was recorded to determine whether the compound had agonistic activity. After 10 minutes, CaCl2 (Second addition) was added a final concentration of 3 mM to each well to stimulate intracellular calcium flux signals. Ca^++-dependent fluorescence signal was monitored continuously at 538 nm wavelength to analyze the inhibitory activity of the compounds.
The data was collected and analyzed using a FLIPR program. The fluorescence peak value was used to evaluate the inhibitory (or agonistic) activity of the compounds at each concentration. EXCEL and PRISM programs were used to calculate the IC50 value of the compounds.
For the molecule `CC(C)(C)C1CCN(C(=O)C2(Nc3ncc(C#N)s3)CCCC2)CC1` [Compound 40, 2-((1-(4-(tert-butyl)piperidine-1-carbonyl)cyclopentyl)amino)thiazole-5-carbonitrile], the IC50 stood at 950 nM.

Regarding `CC(C)(C)C1CCN(C(=O)C2(Nc3nc(C#N)co3)CCCC2)CC1` [Compound 41, 2-((1-(4-(tert-butyl)piperidine-1-carbonyl)cyclopentyl)amino) oxazole-4-carbonitrile], the IC50 worked out at 3070 nM.

As to `Cn1cc(NC2(C(=O)N3CCC(C(C)(C)C)CC3)CCCC2)nc1C#N` [Compound 42, 4-((1-(4-(tert-butyl)piperidine-1-carbonyl)cyclopentyl)amino) -1-methyl-1H-imidazole-2-carbonitrile], the IC50 was 4650 nM.

With `CC(C)(C)C1CCN(C(=O)C(Nc2ccc(C#N)cc2)C(C)(C)C)CC1` (stereo not drawn) [Compound 43, 4-((1-(4-(tert-butyl)piperidine-1-carbonyl)tert-butyl)amino) benzonitrile], the IC50 was 91 nM.

As for `CC(C)(C)C1CCN(C(=O)C2(Nc3ccc(C(F)(F)F)cc3)CCCC2)CC1` [Compound 45], the IC50 was 72 nM.

With `CC(C)(C)C1CCN(C(=O)C2(Nc3ccc(Cl)cc3)CCCC2)CC1` [Compound 46, 4-((1-(4-(tert-butyl)piperidine-1-carbonyl)cyclopentyl)amino) chlorobenzene], the IC50 worked out at 108 nM.

In the case of `N#Cc1ccc(OC2(C(=O)N3CCN(c4cccc(C(F)(F)F)n4)CC3)CCCC2)cc1` [Compound 47, 4-((1-(4-(6-(trifluoromethyl)pyridin-2-yl)piperazine-1-carbonyl)cyclopentyl)oxy)benzonitrile], the IC50 was found to be 38 nM.

As for `Cc1cccc(N2CCN(C(=O)C3(Oc4ccc(C#N)cc4)CCCC3)CC2)c1` [Compound 48, 4-((1-(4-(m-methylphenyl)piperazine-1-carbonyl)cyclopentyl)oxy)benzonitrile], the IC50 was 65 nM.

For `N#Cc1ccc(OC2(C(=O)N3CCN(c4ccc(C(F)(F)F)cc4)CC3)CCCC2)cc1` [Compound 49], the IC50 was found to be 325 nM.

Turning to `CC(C)(C)C(Oc1ccc(C#N)cc1)C(=O)N1CCN(c2cccc(C(F)(F)F)n2)CC1` (stereo not drawn) [Compound 51], the IC50 is 182 nM.

On to `N#Cc1ccc(OC2(C(=O)N3CCN(c4ccc(C(F)(F)F)nn4)CC3)CCCC2)cc1` [Compound 52, 4-((1-(4-(6-(trifluoromethyl)pyridazin-3-yl)piperazine-1-carbonyl)cyclopentyl)oxy)ben zonitrile], for which the IC50 amounted to 465 nM.

Turning to `O=C(N1CCN(c2ccc(C(F)(F)F)nn2)CC1)C1(Oc2ccc([N+](=O)[O-])cc2)CCCC1` [Compound 53, 4-((1-(4-(6-(trifluoromethyl)pyridazin-3-yl)piperazine-1-carbonyl)cyclopentyl)oxy)nitro benzene], the IC50 is 862 nM.

On to `N#Cc1ccc(OC2(C(=O)N3CC4CCC3CN4c3cccc(C(F)(F)F)n3)CCCC2)cc1` (stereo not drawn) [Compound 55, 4-((1-(5-(6-(trifluoromethyl)pyridin-2-yl)-2,5-diazabicyclo [2.2.2]octane-2-carbonyl)cyclopentyl)oxy)benzonitrile], for which the IC50 was found to be 91 nM.

With `CC(C)(C)C1CCN(C(=O)C2(Oc3ccc(C#N)cc3)CCCC2)CC1` [Compound 56, 4-((1-(4-(tert-butyl)piperidine-1-carbonyl)cyclopentyl)oxy) benzonitrile], the IC50 is 76 nM.

Consider `CC(C)(C)N1CCN(C(=O)C2(Oc3ccc(C#N)cc3)CCCC2)CC1` [Compound 57, 4-((1-(4-(tert-butyl)piperazine-1-carbonyl)cyclopentyl)oxy) benzonitrile], for which the IC50 turned out to be 51 nM.

On to `N#Cc1ccc(OC2(C(=O)N3CCN(c4cccc(C(F)(F)F)n4)CC3)CCC2)cc1` [Compound 58, 4-((1-(4-(6-(trifluoromethyl)pyridin-2-yl)piperazine-1-carbonyl)cyclobutyl)oxy)benzo nitrile], for which the IC50 was 620 nM.

In the case of `N#Cc1ccc(OC2(C(=O)N3CCN(c4ccc(C(F)(F)F)nn4)CC3)CCCC2)cc1Cl` [Compound 60, 2-chloro-4-((1-(4-(6-(trifluoromethyl)pyridazin-3-yl)piperazine-1-carbonyl)cyclopentyl)oxy)benzonitrile], the IC50 worked out at 847 nM.

`N#Cc1ccc(OC(C(=O)N2CCN(c3ccc(C(F)(F)F)nn3)CC2)c2ccccc2)cc1` (stereo not drawn) [Compound 63]: the IC50 is 560 nM.

Consider `CC(C)(C)N1CCN(C(=O)C2(Oc3ccc(C(F)(F)F)cc3)CCCC2)CC1` [Compound 64, 4-((1-(4-(tert-butyl)piperazine-1-carbonyl)cyclopentyl)oxy) trifluoromethylbenzene], for which the 50% inhibitory concentration (IC50) was found to be 552 nM.

Take `Cn1cc(C#N)cc1OC1(C(=O)N2CCC(C(C)(C)C)CC2)CCCC1` [Compound 65, 5-((1-(4-(tert-butyl)piperidine-1-carbonyl)cyclopentyl)oxy)-1-methyl-1H-pyrrole-3-car bonitrile]: the IC50 came to 1080 nM.

Turning to `CC(C)(C)N1CCN(C(=O)C2(Sc3ccc(C#N)cc3)CCCC2)CC1` [Compound 66, 4-((1-(4-(tert-butyl)piperazine-1-carbonyl)cyclopentyl)sul-fanyl)benzonitrile], the IC50 was 105 nM.

On to `Cn1ccc2cc(SC3(C(=O)N4CCC(C(C)(C)C)CC4)CCCC3)ccc21` [Compound 67, 5-((1-(4-(tert-butyl)piperidine-1-carbonyl)cyclopentyl)sulfanyl)-1-methyl-1H-indole], for which the IC50 was 3780 nM.

Turning to `N#Cc1ccc2c(c1)CC(C(=O)N1CCN(c3cccc(C(F)(F)F)n3)CC1)N2` (stereo not drawn) [Compound 68, 2-(4-(6-(trifluoromethyl)pyridin-2-yl)piperazine-1-carbonyl)-5-cyanoindoline], the IC50 was found to be 112 nM.

Turning to `N#Cc1ccc2c(c1)CC(C(=O)N1CCN(c3nccc(C(F)(F)F)n3)CC1)N2` (stereo not drawn) [Compound 69, 2-(4-(4-(trifluoromethyl)pyrimidin-2-yl)piperazine-1-carbonyl)-5-cyanoindoline], the IC50 turned out to be 386 nM.

On to `N#Cc1ccc2c(c1)CC(C(=O)N1CCN(c3cccc(C(F)(F)F)c3)CC1)N2` (stereo not drawn) [Compound 70, 2-(4-(3-(trifluoromethyl)phenyl)piperazine-1-carbonyl)-5-cyanoindoline], for which the IC50 was 92 nM.

With `N#Cc1ccc2[nH]c(C(=O)N3CCN(c4cccc(C(F)(F)F)n4)CC3)cc2c1` [Compound 71, 2-(4-(6-(trifluoromethyl)pyridin-2-yl)piperazine-1-carbonyl)-1H-5-cyanoindole], the IC50 was 866 nM.

Consider `N#Cc1ccc2[nH]c(C(=O)N3CCN(c4ccc(C(F)(F)F)cn4)CC3)cc2c1` [Compound 72, 2-(4-(5-(trifluoromethyl)pyridin-2-yl)piperazine-1-carbonyl)-1H-5-cyanoindole], for which the IC50 came out at 971 nM.

Turning to `N#Cc1ccc2c(c1)CC(C(=O)N1CCN(c3cccc(C(F)(F)F)n3)CC1)O2` (stereo not drawn) [Compound 73, 2-(4-(6-(trifluoromethyl)pyridin-2-yl)piperazine-1-carbonyl)-2,3-2H-5-cyanobenzofuran], the IC50 stood at 261 nM.

Consider `O=C(C1Cc2cc(Cl)ccc2O1)N1CCN(c2cccc(C(F)(F)F)n2)CC1` (stereo not drawn) [Compound 74, 2-(4-(6-(trifluoromethyl)pyridin-2-yl)piperazine-1-carbonyl)-2,3-2H-5-chlorobenzofuran], for which the IC50 was determined as 116 nM.

Turning to `Cc1cccc(N2CCN(C(=O)C3Cc4cc(C#N)ccc4O3)CC2)n1` (stereo not drawn) [Compound 75], the IC50 amounted to 285 nM.

In general, IC50 refers to the concentration that inhibits the measured activity by half.
